One experiment addresses LCK (Homo sapiens, UniProt P06239). The experiment can be described thus: Preliminary safety test on human LCK kinase. In kind it is biochemical. As to the method:
We explored the binding mode by also testing compounds on the gatekeeper mutant enzyme TQ PfPKG. […] A preliminary safety test was performed on human AuroraB and LCK kinases which often underpin toxicity issues. […] Further assays for compound characterization included determination of solubility and cytotoxicity (HepG2 inhibition).

The test system of a further experiment is HepG2 cells. The experiment can be described thus: Cytotoxicity assay (CellTiter-Glo). In kind it is cell-based. The conditions noted are these: Homo sapiens; HepG2 cytotoxicity; read-out: HepG2. As to the method:
Cytotoxicity assays were performed on HepG2 cells as previously described. HepG2 cells were removed from a T-175 TC flask using 5 mL Eagle’s MEM (containing 10% FBS, 1% NEAA, 1% penicillin/streptomycin) and dispersed in the medium. Seeding density was checked to ensure that new mono-layers were not more than 50% confluent at the time of harvesting. Cells were added to 500 mL of the same medium at a final density of 1.2 × 10^5 cells/mL. They were then dispensed (25 μL, about 3,000 cells per well) into 384-well clear-bottom plates using a Multidrop Combi dispenser. Test compounds (250 nL) were dispensed into the plates with an EchoH liquid handler prior to addition of the cells. Plates were incubated for 48 h at 37 °C, 5% CO2. After incubation, plates were equilibrated at room temperature for 30 minutes before proceeding to develop the luminescent signal. The CellTiter-GloH Reagent was allowed to equilibrate at room temperature for 30 minutes and added to the plates (25 μL per well) using a Multidrop Combi dispenser. Plates were left for 10 minutes at room temperature for stabilization and then read using a Perkin Elmer ViewLux.

For the next experiment, the target named is T1, HuPKGIα (Homo sapiens, UniProt Q13976).
T1 construct: His6; host or cells: Spodoptera frugiperda 21 cells (baculovirus)
T1 sequence (Q13976 1-671): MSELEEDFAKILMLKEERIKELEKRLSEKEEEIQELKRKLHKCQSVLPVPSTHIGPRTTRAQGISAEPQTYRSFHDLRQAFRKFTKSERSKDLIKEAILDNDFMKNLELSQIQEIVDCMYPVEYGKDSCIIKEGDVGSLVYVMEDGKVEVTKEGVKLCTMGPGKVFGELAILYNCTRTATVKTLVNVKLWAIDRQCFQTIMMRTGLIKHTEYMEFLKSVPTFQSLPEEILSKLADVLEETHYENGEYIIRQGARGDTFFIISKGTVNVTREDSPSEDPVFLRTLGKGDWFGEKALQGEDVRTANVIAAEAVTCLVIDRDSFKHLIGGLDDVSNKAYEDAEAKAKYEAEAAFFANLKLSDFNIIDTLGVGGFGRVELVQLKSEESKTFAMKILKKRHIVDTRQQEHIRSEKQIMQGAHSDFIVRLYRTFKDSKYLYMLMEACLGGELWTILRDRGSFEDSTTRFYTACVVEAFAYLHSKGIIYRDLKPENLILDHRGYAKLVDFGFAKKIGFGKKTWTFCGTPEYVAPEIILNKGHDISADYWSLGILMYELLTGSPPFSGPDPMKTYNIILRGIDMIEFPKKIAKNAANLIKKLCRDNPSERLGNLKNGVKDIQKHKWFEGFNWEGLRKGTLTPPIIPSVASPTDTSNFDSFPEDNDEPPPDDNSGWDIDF
The experiment can be described thus: Kinase Glo enzymatic assay, human PKG. In kind it is biochemical. Particulars: human PKGIα; read-out: Hu PKGIα. As to the method: To identify new PKG inhibitor scaffolds, the 1.7 million GlaxoSmithKline Full Diversity collection was tested at a single final concentration of 10 μM against recombinant full length wild type (WT) PfPKG using a Kinase Glo-based assay (Promega). […] Fresh samples of these primary hits were tested in duplicate against WT PfPKG and also against human PKGIα (HuPKGIα) (Supplementary Fig. 1) at a final concentration of 10 μM (confirmation step).
The expression vector encoding His6-cGK1α (HuPKGIα) was used to generate recombinant baculoviruses using the Bac-to-Bac system (Invitrogen) following the manufacturer’s protocol. These baculoviruses were used to infect Spodoptera frugiperda 21 cells (1.5 × 10^6/ml) at a multiplicity of infection of 5 and the infected cells were harvested 48 hours post-infection. His6-cGK1α was purified on Cobalt agarose and dialysed into 50 mM Tris-HCl pH 7.5, 0.1 mM EGTA, 150 mM NaCl, 270 mM sucrose, 0.03% Brij-35, 0.1% 2-mercaptoethanol, 1 mM benzamidine, 0.1 mM phenylmethylsulfonyl fluoride (PMSF).
Initial optimization of the PKG assay was performed manually in 384-well plates and analysed with GraFit 7. The buffer for all assays was 25 mM HEPES pH 7.3 (GIBCO), 10 mM MgCl2 (Sigma), 2 mM DTT (Sigma), 0.01 mM cGMP (Sigma), 0.1 mg/ml BSA (Ambion). Enzymatic activity was tested using a luminescence-based kit (Promega KinaseGlo). Addition of the first reagent depletes the unused ATP and addition of the second reagent converts ADP (product of the kinase reaction) to ATP, which is then measured through a luciferin/luciferase reaction. The amount of luminescence is directly proportional to ATP turnover by the kinase. The kit was chosen because it can be miniaturized to small volumes (i.e. 4 µl) in 1536-well plates, for use in HTS.
We used PKA peptide substrate (SCP0212, Sigma-Aldrich) for WT and TQ PfPKG, dissolved in milliQ water at a final concentration of 5 mM, and Long S6 peptide substrate (produced at the University of Dundee, sequence […]) for HuPKGIα, dissolved in water at a final concentration of 30 mM.
We calculated the Michaelis-Menten (Km) constant for ATP and peptide substrate (PKA or Long S6) for all enzymes using GraphPad Prism (Supplementary Figs 2 and 3 and Supplementary Table 3). In order to identify different types of PKG inhibitors, including ATP competitive or non-competitive inhibitors, as well as inhibitors that bind to the peptide substrate pocket, we performed all assays using ATP and peptide substrate at a concentration equal to the Km. We also determined enzyme activity by calculating ATP turnover (Kcat) over the Km (Supplementary Table 3). The Kcat was calculated as (Vmax*slope)/[E] where Vmax is the maximum velocity and [E] is the concentration of the enzyme.
The plates containing the compounds were prepared at GSK in Upper Providence or Stevenage. Compounds were tested at a single final concentration of 10 µM or in a dose response with a range of concentrations starting from 100 μM to 1.6 nM (1 in 3 serial dilutions). Compounds were dispensed in the plates at the required concentration in a 40 nl volume. All plates (1536-well white Greiner) contained 40 nl of DMSO in lanes 11 and 12 (control 1, 100% enzyme activity) and were empty in lanes 35 and 36 (control 2, 0% enzyme activity). The plates were removed from −20 °C 1 hour before starting the assay. Using a Multidrop Combi dispenser (Thermo Scientific), 2 µl of the buffer containing ATP and the substrate were added to all wells then 2 µl of buffer only were added to column 35 and 36. Finally 2 µl of buffer containing the enzyme were dispensed in all the plate wells except for lanes 35 and 36. After 1 hour incubation at 21 °C 2 µl of ADP-Glo reagent (Promega KinaseGlo kit), previously supplemented with 0.02% CHAPS (Sigma), were added to all wells.

Chain of LCK (P06239 whole entry): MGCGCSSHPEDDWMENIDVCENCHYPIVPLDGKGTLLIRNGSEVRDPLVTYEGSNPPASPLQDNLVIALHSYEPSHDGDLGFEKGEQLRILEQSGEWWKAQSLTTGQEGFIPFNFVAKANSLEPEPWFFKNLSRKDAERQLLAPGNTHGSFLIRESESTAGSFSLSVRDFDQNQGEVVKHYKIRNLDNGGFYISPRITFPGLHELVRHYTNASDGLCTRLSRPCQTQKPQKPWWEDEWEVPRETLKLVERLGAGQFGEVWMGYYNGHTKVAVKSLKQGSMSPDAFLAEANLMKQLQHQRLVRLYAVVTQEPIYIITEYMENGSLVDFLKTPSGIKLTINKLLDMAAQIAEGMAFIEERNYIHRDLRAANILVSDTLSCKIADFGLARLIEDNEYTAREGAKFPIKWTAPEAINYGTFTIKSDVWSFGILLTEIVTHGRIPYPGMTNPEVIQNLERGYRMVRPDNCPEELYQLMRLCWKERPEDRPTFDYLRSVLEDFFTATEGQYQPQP

For the molecule `COc1ccc(-c2c(-c3cccc(C(=O)N4CCN(C)CC4)c3)oc3ncnc(N)c23)cc1` [Compound 7], the IC50 is 0.4 µM at LCK, > 100 µM in the experiment with HepG2 cells and > 100 µM on HuPKGIα.

Regarding `COc1cc(CS(C)(=O)=O)ccc1Nc1nc(Nc2cc(F)ccc2C(N)=O)c2cc[nH]c2n1` [Compound 10], the IC50 on LCK is > 31.6 µM; with HepG2 cells it was > 100 µM; on HuPKGIα it was > 100 µM.

Consider `O=C(c1cccc(OCc2cccnc2)c1)N1CCc2sccc2C1CN1CCCCC1` (stereo not drawn) [Compound 14], for which the values for the IC50 against LCK, in the experiment on HepG2 cells and on HuPKGIα were > 31.6 µM, > 100 µM and > 100 µM, respectively.

As to `CNS(=O)(=O)c1cccc(Nc2ccnc(Nc3cccc(S(=O)(=O)NC)c3)n2)c1` [Compound 6], the IC50 against LCK came to 2 µM; with HepG2 cells, 25.1 µM; on HuPKGIα, 44.2 µM.

Turning to `O=C(N[C@@H](CO)c1ccccc1)c1ccc2cncc(-c3cn[nH]c3)c2n1` [Compound 11], the IC50 against LCK is 1 µM; in the experiment on HepG2 cells, > 100 µM; at HuPKGIα, 6.1 µM.

As for `COc1cccc(Nc2nc(-c3ccncc3)cc(N3CCN(C)CC3)n2)c1` [Compound 9], the values for the IC50 against LCK, in the experiment on HepG2 cells and at HuPKGIα were > 31.6 µM, 5 µM and > 100 µM, respectively.

As for `Nc1ccc2c(-c3ccncc3)c(-c3ccc(Cl)c(O)c3)[nH]c2n1` [Compound 15], the IC50 was 5 µM at LCK, 20 µM with HepG2 cells and 45.2 µM on HuPKGIα.

For the molecule `NCCNCc1ccc(-c2cc3ccncc3cc2OC2CCNCC2)s1` [Compound 12], the IC50 on LCK is 4 µM; in the experiment with HepG2 cells, > 100 µM; on HuPKGIα, 13.8 µM.

Turning to `Cc1ccc(S(C)(=O)=O)cc1Nc1nccc(-c2sc(CC(N)=O)nc2-c2ccccc2)n1` [Compound 3], the IC50 against LCK is 0.251 µM; in the experiment with HepG2 cells, 50.1 µM; at HuPKGIα, > 100 µM.

`CC(C)(CN)c1cc(-c2ccc(Cl)c(O)c2)c(-c2ccncc2)o1` [Compound 4]: the IC50 against LCK came to 0.126 µM; with HepG2 cells, 12.6 µM; on HuPKGIα, 15 µM.

Regarding `CCn1cc(-c2ccncn2)c(-c2cccc(NS(=O)(=O)c3cc(F)ccc3F)c2)n1` [Compound 2], the IC50 at LCK was 7.9 µM; in the experiment with HepG2 cells, > 100 µM; at HuPKGIα, > 100 µM.

As for `CNCCOc1cnc(-c2ccoc2C)c(-c2ccc3cnccc3c2)c1` [Compound 13], the IC50 against LCK came to 1.3 µM; with HepG2 cells, 63.1 µM; at HuPKGIα, 7.4 µM.

Consider `Nc1nc(Nc2cccc3cnccc23)nn1C(=O)C1CCCCC1` [Compound 16], for which the figures for the IC50 on LCK, with HepG2 cells and on HuPKGIα were > 31.6 µM, 79.4 µM and 22.4 µM, respectively.

For the molecule `CCn1c(-c2nonc2N)nc2c(-c3ccccc3)ncc(CN(C)C3CCN(C)CC3)c21` [Compound 5], the IC50 against LCK came to 12.6 µM; in the experiment on HepG2 cells, 12.6 µM; at HuPKGIα, 40.3 µM.

Regarding `COc1ccc(CCNC(=O)CSc2ncnc3[nH]ncc23)cc1OC` [Compound 8], the IC50 was > 31.6 µM against LCK, > 100 µM with HepG2 cells and > 100 µM on HuPKGIα.

The record behind these values is article PMC6504873, “High-throughput screening of the Plasmodium falciparum cGMP-dependent protein kinase identified a thiazole scaffold which kills erythrocytic and sexual stage parasites” (Scientific Reports, 2019).
